The source of these data is patent US20200079793A1, “COMPOUNDS AND METHODS FOR MODULATING ADENOSINE A2B RECEPTOR AND ADENOSINE A2A RECEPTOR” (CORVUS PHARMACEUTICALS, INC., priority 2018, published 2020).

One test deals with T1, Adenosine A2B Receptor (Homo sapiens, UniProt P29275).
T1 sequence (P29275 1-332): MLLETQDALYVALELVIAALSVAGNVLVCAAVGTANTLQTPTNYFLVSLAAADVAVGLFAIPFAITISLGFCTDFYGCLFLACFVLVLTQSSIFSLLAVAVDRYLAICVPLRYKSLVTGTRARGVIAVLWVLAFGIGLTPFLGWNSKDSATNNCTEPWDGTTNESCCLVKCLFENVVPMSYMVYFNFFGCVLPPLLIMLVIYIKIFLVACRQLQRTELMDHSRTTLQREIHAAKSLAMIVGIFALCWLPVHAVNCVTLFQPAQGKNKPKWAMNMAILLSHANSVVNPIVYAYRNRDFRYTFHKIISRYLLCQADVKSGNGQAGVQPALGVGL
The test can be described thus: Activity assay of adenosine receptor modulators, Adenosine A2B Receptor (Table 1). The format is biochemical. Conditions: cAMP; read-out: A2BR cAMP IC50. The procedure: (§1) Compounds (e.g., adenosine receptor modulators) were tested for its biological activity. The assay results in Table 1 indicate (+ means >1 μM; ++ means 100 nM to 1 μM; +++ means <100 nM).

The next test deals with Adenosine A2A Receptor (Homo sapiens, UniProt P29274). The test can be described thus: Activity assay of adenosine receptor modulators, Adenosine A2A Receptor (Table 1). The following applies: cAMP; read-out: A2AR cAMP IC50. The format is biochemical. The procedure:
as §1

In the next test the target is T2, A1R (Homo sapiens, UniProt P30542).
T2 sequence (P30542 1-326): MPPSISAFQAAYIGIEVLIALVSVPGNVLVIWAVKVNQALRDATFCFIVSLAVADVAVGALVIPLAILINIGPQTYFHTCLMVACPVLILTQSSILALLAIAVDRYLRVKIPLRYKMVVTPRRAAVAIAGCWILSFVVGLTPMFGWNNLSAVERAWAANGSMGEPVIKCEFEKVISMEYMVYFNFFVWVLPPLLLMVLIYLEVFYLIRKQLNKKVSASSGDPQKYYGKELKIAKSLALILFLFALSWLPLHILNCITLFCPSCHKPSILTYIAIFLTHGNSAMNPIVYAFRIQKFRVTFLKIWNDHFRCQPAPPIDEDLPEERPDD
The test can be described thus: Activity assay of adenosine receptor modulators, A1R cAMP (Table 1). The format is cell-based. The procedure: as §1

A further test addresses T3, A3R (Homo sapiens, UniProt P0DMS8).
T3 sequence (P0DMS8 1-318): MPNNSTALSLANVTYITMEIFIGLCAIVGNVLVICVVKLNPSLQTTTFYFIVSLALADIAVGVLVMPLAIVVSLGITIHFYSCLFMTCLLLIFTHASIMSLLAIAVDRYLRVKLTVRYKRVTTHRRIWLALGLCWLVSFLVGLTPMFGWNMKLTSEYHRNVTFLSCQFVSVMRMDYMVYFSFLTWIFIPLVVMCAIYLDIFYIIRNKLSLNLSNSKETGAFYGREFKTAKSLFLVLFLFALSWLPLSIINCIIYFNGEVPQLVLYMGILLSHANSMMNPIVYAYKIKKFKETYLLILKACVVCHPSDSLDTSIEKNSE
Nature of the test: Activity assay of adenosine receptor modulators, A3R cAMP (Table 1). The format is cell-based. The procedure: as §1

Adenosine A2A Receptor, sequence (P29274 whole entry): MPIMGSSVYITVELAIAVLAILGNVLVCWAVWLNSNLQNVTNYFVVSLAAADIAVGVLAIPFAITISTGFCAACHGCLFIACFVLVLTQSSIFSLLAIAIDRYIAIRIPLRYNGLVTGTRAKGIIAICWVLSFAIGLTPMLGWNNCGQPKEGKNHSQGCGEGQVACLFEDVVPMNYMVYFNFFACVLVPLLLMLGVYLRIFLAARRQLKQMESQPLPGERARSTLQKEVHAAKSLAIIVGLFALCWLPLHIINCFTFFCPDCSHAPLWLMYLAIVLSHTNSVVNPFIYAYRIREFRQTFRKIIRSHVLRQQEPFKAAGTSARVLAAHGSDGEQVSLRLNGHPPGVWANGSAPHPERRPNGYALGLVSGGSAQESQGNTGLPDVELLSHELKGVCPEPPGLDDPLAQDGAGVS

As a reminder, the IC50 is the concentration needed to halve the response being measured. Turning to `Cc1nc2nc(N[C@@H](C)c3cncc(F)c3)nc(C(=O)N3CC(NC(=O)c4ccccc4F)C3)c2s1` [Example 59, (S)-2-Fluoro-N-(1-(5-((1-(5-fluoropyridin-3-yl)ethyl)amino)-2-methylthiazolo[4,5-d]pyrimidine-7-carbonyl)azetidin-3-yl)benzamide], the IC50 at Adenosine A2B Receptor was under 100 nM; on Adenosine A2A Receptor, under 100 nM; against A1R, over 1000 nM; against A3R, 100 to 1000 nM.
For the compound `Cc1nc2nc(N[C@@H](C)c3cccnc3)nc(C(=O)N3CC(NC(=O)c4ccoc4)C3)c2s1` [Example 80, N-[1-[2-Methyl-5-[[(S)-1-(3-pyridyl)ethyl]amino]thiazolo[4,5-d]pyrimidine-7-carbonyl]azetidin-3-yl]furan-3-carboxamide], the IC50 at Adenosine A2B Receptor is 100 to 1000 nM; at Adenosine A2A Receptor, under 100 nM; against A1R it was over 1000 nM; at A3R, over 1000 nM.
On to `Cc1nc2nc(N[C@@H](C)c3cncc(F)c3)nc(C(=O)N3CC(NC(=O)C45CCC(CC4)CC5)C3)c2s1` [Example 67, (S)—N-(1-(5-((1-(5-Fluoropyridin-3-yl)ethyl)amino)-2-methylthiazolo[4,5-d]pyrimidine-7-carbonyl)azetidin-3-yl)bicyclo[2.2.2]octane-1-carboxamide], for which the IC50 is under 100 nM at Adenosine A2B Receptor, under 100 nM at Adenosine A2A Receptor, over 1000 nM against A1R and under 100 nM against A3R.
In the case of `Cc1nc2nc(N[C@@H](C)c3cncc(F)c3)nc(C(=O)N3CC(NC(=O)Nc4ccccc4)C3)c2s1` [Example 65, (S)-1-(1-(5-((1-(5-Fluoropyridin-3-yl)ethyl)amino)-2-methylthiazolo[4,5-d]pyrimidine-7-carbonyl)azetidin-3-yl)-3-phenylurea], the half-maximal inhibitory concentration (IC50) at Adenosine A2B Receptor was 100 to 1000 nM; at Adenosine A2A Receptor, under 100 nM; at A1R it was over 1000 nM; against A3R, 100 to 1000 nM.
In the case of `Cc1nc2nc(N[C@@H](C)c3cncc(F)c3)nc(C(=O)N3CC(NC(=O)C4(C(F)(F)F)CC4)C3)c2s1` [Example 70, (S)—N-(1-(5-((1-(5-Fluoropyridin-3-yl)ethyl)amino)-2-methylthiazolo[4,5-d]pyrimidine-7-carbonyl)azetidin-3-yl)-1-(trifluoromethyl)cyclopropane-1-carboxamide], the IC50 is under 100 nM on Adenosine A2B Receptor, under 100 nM on Adenosine A2A Receptor, over 1000 nM on A1R and 100 to 1000 nM against A3R.
As to `Cc1nc2nc(N[C@@H](C)c3cncc(F)c3)nc(C(=O)N3CCC3)c2s1` [Example 2, (S)-Azetidin-1-yl(5-((1-(5-fluoropyridin-3-yl)ethyl)amino)-2-methylthiazolo[4,5-d]pyrimidin-7-yl)methanone], the half-maximal inhibitory concentration (IC50) was under 100 nM on Adenosine A2B Receptor, 100 to 1000 nM at Adenosine A2A Receptor, over 1000 nM against A1R and 100 to 1000 nM against A3R.
For `CC(=O)N[C@H]1CCN(C(=O)c2nc(N[C@@H](C)c3cncc(F)c3)nc3nc(C)sc23)C1` [Example 29, N—((S)-1-(5-(((S)-1-(5-Fluoropyridin-3-yl)ethyl)amino)-2-methylthiazolo[4,5-d]pyrimidine-7-carbonyl)pyrrolidin-3-yl)acetamide], the IC50 was under 100 nM at Adenosine A2B Receptor, 100 to 1000 nM on Adenosine A2A Receptor, over 1000 nM at A1R and 100 to 1000 nM against A3R.
On to `CC(=O)Nc1ccc(CCNC(=O)c2nc(N[C@@H](C)c3cncc(F)c3)nc3nc(C)sc23)cc1` [Example 24, (S)—N-(4-Acetamidophenethyl)-5-((1-(5-fluoropyridin-3-yl)ethyl)amino)-2-methylthiazolo[4,5-d]pyrimidine-7-carboxamide], for which the IC50 is under 100 nM at Adenosine A2B Receptor, over 1000 nM at Adenosine A2A Receptor, over 1000 nM against A1R and over 1000 nM against A3R.
For `Cc1nc2nc(N[C@@H](C)c3cccnc3)nc(C(=O)N3CC(NC(=O)c4ccccc4)C3)c2s1` [Example 73, N-[1-[2-Methyl-5-[[(S)-1-(3-pyridyl)ethyl]amino]thiazolo[4,5-d]pyrimidine-7-carbonyl]azetidin-3-yl]benzamide], the IC50 was 100 to 1000 nM on Adenosine A2B Receptor, under 100 nM at Adenosine A2A Receptor, over 1000 nM at A1R and 100 to 1000 nM against A3R.
On to `Cc1nc2nc(N[C@@H](C)c3ccccn3)nc(C(=O)N3CC[C@H](O)C3)c2s1` [Example 17, ((S)-3-Hydroxypyrrolidin-1-yl)(2-methyl-5-(((S)-1-(pyridin-2-yl)ethyl)amino)thiazolo[4,5-d]pyrimidin-7-yl)methanone], for which the IC50 on Adenosine A2B Receptor was under 100 nM; on Adenosine A2A Receptor, over 1000 nM; at A1R, over 1000 nM; against A3R, over 1000 nM.
Regarding `COCC1CN(C(=O)c2nc(N[C@@H](C)c3cncc(F)c3)nc3nc(C)sc23)C1` [Example 51, (S)-(5-((1-(5-Fluoropyridin-3-yl)ethyl)amino)-2-methylthiazolo[4,5-d]pyrimidin-7-yl)(3-(methoxymethyl)azetidin-1-yl)methanone], the 50% inhibitory concentration (IC50) was under 100 nM on Adenosine A2B Receptor, 100 to 1000 nM on Adenosine A2A Receptor, over 1000 nM on A1R and over 1000 nM on A3R.
For the compound `Cc1nc2nc(N[C@@H](C)c3cncc(F)c3)nc(C(=O)NC[C@@H](C)O)c2s1` [Example 3, 5-(((S)-1-(5-Fluoropyridin-3-yl)ethyl)amino)-N—((R)-2-hydroxypropyl)-2-methylthiazolo[4,5-d]pyrimidine-7-carboxamide], the IC50 on Adenosine A2B Receptor was under 100 nM; at Adenosine A2A Receptor it was 100 to 1000 nM; against A1R, 100 to 1000 nM; on A3R it was 100 to 1000 nM.
`COc1cccc(C(=O)NC2CN(C(=O)c3nc(N[C@@H](C)c4cncc(F)c4)nc4nc(C)sc34)C2)c1` [Example 71, (S)—N-(1-(5-((1-(5-Fluoropyridin-3-yl)ethyl)amino)-2-methylthiazolo[4,5-d]pyrimidine-7-carbonyl)azetidin-3-yl)-3-methoxybenzamide]: the concentration for half-maximal inhibition (IC50) is under 100 nM on Adenosine A2B Receptor, under 100 nM on Adenosine A2A Receptor, over 1000 nM at A1R and 100 to 1000 nM at A3R.
As to `Cc1nc2nc(N[C@@H](C)c3cccnc3)nc(C(=O)N3CC(NC(=O)C45CC6CC(CC(C6)C4)C5)C3)c2s1` [Example 77, N-[1-[2-Methyl-5-[[(S)-1-(3-pyridyl)ethyl]amino]thiazolo[4,5-d]pyrimidine-7-carbonyl]azetidin-3-yl]adamantane-1-carboxamide], the half-inhibitory concentration (IC50) on Adenosine A2B Receptor was under 100 nM; on Adenosine A2A Receptor, under 100 nM; on A1R, over 1000 nM; at A3R it was 100 to 1000 nM.
`Cc1nc2nc(N[C@@H](C)c3cccnc3)nc(C(=O)N3CC(NC(=O)C4(C)CC4)C3)c2s1` [Example 76, 1-Methyl-N-[1-[2-methyl-5-[[(S)-1-(3-pyridyl)ethyl]amino]thiazolo[4,5-d]pyrimidine-7-carbonyl]azetidin-3-yl]cyclopropanecarboxamide]: the IC50 on Adenosine A2B Receptor was 100 to 1000 nM; on Adenosine A2A Receptor, under 100 nM; at A1R it was over 1000 nM; against A3R it was 100 to 1000 nM.
`Cc1nc2nc(N[C@@H](C)c3cncc(F)c3)nc(C(=O)N3CC[C@@H](O)C3)c2s1` [Example 7, (5-(((S)-1-(5-Fluoropyridin-3-yl)ethyl)amino)-2-methylthiazolo[4,5-d]pyrimidin-7-yl)((R)-3-hydroxypyrrolidin-1-yl)methanone]: the IC50 is under 100 nM at Adenosine A2B Receptor, 100 to 1000 nM at Adenosine A2A Receptor, over 1000 nM at A1R and over 1000 nM against A3R.
For the compound `Cc1nc2nc(N[C@@H](C)c3ccccn3)nc(C(=O)N3CCCC3)c2s1` [Example 9, (S)-(2-Methyl-5-((1-(pyridin-2-yl)ethyl)amino)thiazolo[4,5-d]pyrimidin-7-yl)(pyrrolidin-1-yl)methanone], the IC50 at Adenosine A2B Receptor was under 100 nM; at Adenosine A2A Receptor, 100 to 1000 nM; on A1R it was over 1000 nM; at A3R, 100 to 1000 nM.
